Data published in patent US7939530B2, “Treatment of lymphoma using 10-propargyl-10-deazaaminopterin and gemcitabine” (Sloan-Kettering Institute for Cancer Research, priority 2004, dated 2011).

Assays:
[1] = test system: caspase 3 in SKI-DLCL-1 cells; assay: Caspase 3 activation (EnzChek Caspase-3 Assay Kit #2, Z-DEVD-R110 cleavage); format: cell-based, human
Protocol: Ara-C, PDX and Gem in combined and scheduled exposures.
To further evaluate the activity of PDX and Gem combinations, Caspase activity was tested by EnzChek® Caspase-3 Assay Kit #2 (Molecular Probes) based upon the fluorometric detection of caspase-dependent Z-DEVD-R110 cleavage (rhodamine 110 bis-[N-CBZ-L-aspartyl-L-glutamyl-L-valyl-L-aspartic acid amide], a non-fluorescent bisamide), which, via a two step process, first yields the monoamide product (weakly fluorescent) and then the fluorescent product R110 (rhodamine 110, strongly fluorescent). Detection was performed on a Fluoroskan Ascent FL fluorescent plate reader (Thermo Lab Systems, Helsinki, Finland) according to the manufacturer's guidelines.

[2] = test system: SKI-DLCL-1 lymphoma cells; assay: Trypan Blue Exclusion cytotoxicity assay of single agents and combinations; format: cell-based, human; settings: MTX 10 nM, PDX 1 nM, Ara-C 40 nM, Gem 10 nM, control = 1
From the text: As set forth in greater detail in the examples herein, combination therapy using PDX and gemcitabine has been tested in vitro and in in vivo model systems for efficacy against lymphoma. Table 1 sets forth data obtained in a cytotoxicity assay (Example 2) using SKI-DLCL-1 lymphoma cells. SKI-DLCL-1 is a diffuse large b cell lymphoma (DLBCL) cell line that is particularly resistant to PDX.
In Table 1, the additive effect is in each case the % of control for the single agents multiplied together. The expected additive effect for PDX+Gem is better than for MTX and ara-C, because the agents are individually better. What is observed for both MTX/AraC combinations and PDX/Gem combinations is that the actual result is better than the predicted additive result. The extent of this synergism is quantified in Table 1 as (actual-additive)/additive so that the amount of reduction that occurs through the use of the combination is expressed as a percentage of the expected additive benefit.
To evaluate cytotoxicity of combination of PDX and GEM, a Trypan Blue Exclusion Assay was performed by aliquoting 5×10^5 SKI-DLBCL cells into each well of a 24 well plate with a final volume of 1 milliliter. Each drug was added in duplicate to the plate wells as follows: alone (MTX 10 nM, PDX 1 nM, Ara-C 40 nM, or Gem 10 nM), PDX+Gem or MTX+Ara-C for 48 h (hours). For the scheduled administration of drug, PDX or MTX alone were dispensed in additional duplicate wells. After 24 hours Gem and Ara-C were added to these wells, respectively, and incubated for 48 hours. At the end of incubation, 20 l of each cell culture was added to 20 l of trypan blue, after which […] was added to a hemocytometer (Hausser Scientific, Horsham, Pa.), where viable cells were counted based upon the presence (dead cells) or exclusion (live cells) of dye.

SKI-DLBCL-1 xenografts = assay: TUNEL immunohistochemical staining for apoptosis in xenografts; format: in vivo, mice; settings: day 21; four doses on days 0, 3, 7 and 10; MTX 40 mg/kg, PDX 60 mg/kg
Protocol: Immunohistochemical staining for apoptosis as measured by terminal deoxynucleotide transferase-mediated nick end-labeling (TUNEL) was performed on SKI-DLBCL-1 xenografts from mice sacrificed at day 21 following initiation of antifolate therapy. Mice received four doses of saline, MTX (40 mg/kg) or PDX (60 mg/kg) on days 0, 3, 7 and 10.

C#CCC(Cc1cnc2nc(N)nc(N)c2n1)c1ccc(C(=O)N[C@@H](CCC(=O)O)C(=O)O)cc1 (stereo partly shown) [PDX, 10-Propargyl-10-deazaminopterin]
Fluorescence at 485ex/527em ([1]; 1 nM, control 134.3): 265.5 | Difference from control ([1]; fluorescence at 485ex/527em): 131.2 | fraction of control [2]: 0.84 | apoptotic cells in tumor tissue (TUNEL) (SKI-DLBCL-1 xenografts): high level of apoptotic cells
